Test results taken from ChEMBL document CHEMBL3102801, “Synthesis and antiproliferative activity of new derivatives containing the polycyclic system 5,7:7,13-dimethanopyrazolo[3,4-b]pyrazolo[3',4':2,3]azepino[4,5-f]azocine” (Eur J Med Chem, 2014).

What was measured:
HT-29 = test: Growth inhibition of human HT-29 cells after 48 hrs by sulforhodamine B assay; type: functional; conditions: HT-29, 48 h
HCT-15 = test: Growth inhibition of human HCT15 cells after 48 hrs by sulforhodamine B assay; type: functional; conditions: HCT-15, 48 h
HCT-116 [1] = test: Growth inhibition of human HCT116 cells after 48 hrs by sulforhodamine B assay; type: functional; conditions: HCT-116, 48 h
COLO 205 = test: Growth inhibition of human COLO205 cells after 48 hrs by sulforhodamine B assay; type: functional; conditions: COLO 205, 48 h
NCI-H522 = test: Growth inhibition of human NCI-H522 cells after 48 hrs by sulforhodamine B assay; type: functional; conditions: NCI-H522, 48 h
NCI-H23 = test: Growth inhibition of human NCI-H23 cells after 48 hrs by sulforhodamine B assay; type: functional; conditions: NCI-H23, 48 h
A549 = test: Growth inhibition of human A549 cells after 48 hrs by sulforhodamine B assay; type: functional; conditions: A549, 48 h
SR = test: Growth inhibition of human SR cells after 48 hrs by sulforhodamine B assay; type: functional
HCT-116 [2] = test: Cell cycle arrest in human HCT116 cells assessed as accumulation of G0-G1 phase at 10 uM after 48 hrs using propidium iodide staining by flow cytometric analysis (reference value: 45.7%); type: functional
HCT-116 [3] = test: Cell cycle arrest in human HCT116 cells assessed as accumulation of G2-M phase at 5 uM after 48 hrs using propidium iodide staining by flow cytometric analysis (reference value: 19.2%); type: functional
HCT-116 [4] = test: Cell cycle arrest in human HCT116 cells assessed as accumulation of G0-G1 phase at 5 uM after 48 hrs using propidium iodide staining by flow cytometric analysis (reference value: 45.7%); type: functional
MDA-MB-231 [5] = test: Cell cycle arrest in human MDA-MB-231 cells assessed as accumulation of sub-G0-G1 phase at 10 uM after 48 hrs using propidium iodide staining by flow cytometric analysis (reference value: 8.4%); type: functional
MDA-MB-231 [6] = test: Cell cycle arrest in human MDA-MB-231 cells assessed as accumulation of G0-G1 phase at 5 uM after 48 hrs using propidium iodide staining by flow cytometric analysis (reference value: 42.2%); type: functional
MDA-MB-468 = test: Growth inhibition of human MDA-MB-468 cells after 48 hrs by sulforhodamine B assay; type: functional; conditions: MDA-MB-468, 48 h
BT-549 = test: Growth inhibition of human BT549 cells after 48 hrs by sulforhodamine B assay; type: functional; conditions: BT-549, 48 h
[7] = Growth inhibition of human Hs 578T cells after 48 hrs by sulforhodamine B assay; type: functional
MDA-MB-231 [8] = test: Growth inhibition of human MDA-MB-231 cells after 48 hrs by sulforhodamine B assay; type: functional; conditions: MDA-MB-231, 48 h
PC-3 = test: Growth inhibition of human PC3 cells after 48 hrs by sulforhodamine B assay; type: functional; conditions: PC-3, 48 h
TK-10 = test: Growth inhibition of human TK10 cells after 48 hrs by sulforhodamine B assay; type: functional; conditions: TK-10, 48 h
CAKI-1 = test: Growth inhibition of human CAKI-1 cells after 48 hrs by sulforhodamine B assay; type: functional; conditions: CAKI-1, 48 h
SK-OV-3 = test: Growth inhibition of human SKOV3 cells after 48 hrs by sulforhodamine B assay; type: functional; conditions: SK-OV-3, 48 h
786-0 = test: Growth inhibition of human 786-0 cells after 48 hrs by sulforhodamine B assay; type: functional; conditions: 786-0, 48 h
[9] = Growth inhibition of human NCI-ADR-RES cells after 48 hrs by sulforhodamine B assay; type: functional
[10] = molecular target: T1, Retinoblastoma-associated protein (Homo sapiens) (UniProt P06400); test: Inhibition of pRb p110 phosphorylation in human HCT116 cells after 48 hrs by Western blotting; type: cell-based; conditions: HCT-116
T1 sequence (whole entry): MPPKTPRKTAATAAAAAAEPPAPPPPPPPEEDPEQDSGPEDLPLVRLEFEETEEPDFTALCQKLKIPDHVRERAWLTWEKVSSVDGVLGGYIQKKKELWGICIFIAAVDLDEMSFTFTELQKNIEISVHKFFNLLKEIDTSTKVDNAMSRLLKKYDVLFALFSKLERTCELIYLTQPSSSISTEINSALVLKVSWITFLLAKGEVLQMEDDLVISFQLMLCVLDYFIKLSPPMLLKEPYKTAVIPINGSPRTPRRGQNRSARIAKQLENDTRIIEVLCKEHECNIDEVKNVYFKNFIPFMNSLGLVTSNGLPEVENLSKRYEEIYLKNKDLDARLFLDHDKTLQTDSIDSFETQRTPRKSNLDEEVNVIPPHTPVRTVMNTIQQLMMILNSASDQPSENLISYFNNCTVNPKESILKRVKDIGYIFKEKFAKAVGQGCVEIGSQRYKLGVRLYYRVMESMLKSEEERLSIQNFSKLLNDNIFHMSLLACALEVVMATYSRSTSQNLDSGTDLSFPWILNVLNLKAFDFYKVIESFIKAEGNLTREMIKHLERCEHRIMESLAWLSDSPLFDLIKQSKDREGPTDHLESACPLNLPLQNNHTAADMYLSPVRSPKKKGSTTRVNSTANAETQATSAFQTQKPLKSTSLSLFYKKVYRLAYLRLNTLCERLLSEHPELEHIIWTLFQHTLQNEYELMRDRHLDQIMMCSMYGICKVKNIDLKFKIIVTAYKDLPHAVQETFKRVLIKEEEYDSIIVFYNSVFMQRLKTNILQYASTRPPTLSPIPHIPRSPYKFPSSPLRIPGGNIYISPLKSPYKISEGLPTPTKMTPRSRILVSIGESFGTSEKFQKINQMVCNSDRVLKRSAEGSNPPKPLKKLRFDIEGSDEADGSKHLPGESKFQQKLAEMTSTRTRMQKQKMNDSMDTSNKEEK

OVCAR-8 = test: Growth inhibition of human OVCAR8 cells after 48 hrs by sulforhodamine B assay; type: functional; conditions: OVCAR-8, 48 h
[11] = Growth inhibition of human OVCAR5 cells after 48 hrs by sulforhodamine B assay; type: functional; conditions: OVCAR-5, 48 h
[12] = Growth inhibition of human OVCAR4 cells after 48 hrs by sulforhodamine B assay; type: functional; conditions: OVCAR-4, 48 h
IGROV-1 = test: Growth inhibition of human IGROV1 cells after 48 hrs by sulforhodamine B assay; type: functional; conditions: IGROV-1, 48 h
[13] = Growth inhibition of human UACC257 cells after 48 hrs by sulforhodamine B assay; type: functional; conditions: UACC-257, 48 h
SK-MEL-5 = test: Growth inhibition of human SK-MEL-5 cells after 48 hrs by sulforhodamine B assay; type: functional; conditions: SK-MEL-5, 48 h
SK-MEL-2 = test: Growth inhibition of human SK-MEL-2 cells after 48 hrs by sulforhodamine B assay; type: functional; conditions: SK-MEL-2, 48 h
U-251 = test: Growth inhibition of human U251 cells after 48 hrs by sulforhodamine B assay; type: functional; conditions: U-251, 48 h
SF-268 = test: Growth inhibition of human SF268 cells after 48 hrs by sulforhodamine B assay; type: functional; conditions: SF-268, 48 h

SMILES: C=C1c2c(C)nn(-c3ccc(OC)cc3)c2N(C)C23CC1C1(C)c4c(C)nn(-c5ccc(OC)cc5)c4N(C)C(C)(CC12)C3 (stereo not drawn)
- GI50 (HT-29): 3.24 µM
- GI50 (HCT-15): 3.11 µM
- GI50 (HCT-116 [1]): 2.82 µM
- GI50 (COLO 205): 2.2 µM
- GI50 (NCI-H522): 2.77 µM
- GI50 (NCI-H23): 3.86 µM
- GI50 (A549): 2.69 µM
- GI50 (SR): 3.16 µM
- Activity (HCT-116 [2]): 63.8%
- Activity (HCT-116 [3]): 12.3%
- Activity (HCT-116 [4]): 59%
- Activity (MDA-MB-231 [5]): 4.6%
- Activity (MDA-MB-231 [6]): 53.5%
- GI50 (MDA-MB-468): 2.5 µM
- GI50 (BT-549): 3.1 µM
- GI50 [7]: 6.24 µM
- GI50 (MDA-MB-231 [8]): 3.11 µM
- GI50 (PC-3): 1.75 µM
- GI50 (TK-10): 3.63 µM
- GI50 (CAKI-1): 2.67 µM
- GI50 (SK-OV-3): 3.39 µM
- GI50 (786-0): 4.23 µM
- GI50 [9]: 4.04 µM
- inhibition [10]: Dose-dependent effect
- GI50 (OVCAR-8): 3.4 µM
- GI50 [11]: 11.3 µM
- GI50 [12]: 3.56 µM
- GI50 (IGROV-1): 7.54 µM
- GI50 [13]: 2.68 µM
- GI50 (SK-MEL-5): 1.73 µM
- GI50 (SK-MEL-2): 3.23 µM
- GI50 (U-251): 2.67 µM
- GI50 (SF-268): 3.63 µM
